Assay results: patent US6737383B1, “Herbicidal oxadiazolidines” (priority 1999, dated 2004)

Columns and labels:
winter wheat [1] = experiment: Test E winter wheat; format: in vivo, Triticum aestivum; conditions: Preemergence
bamyardgrass = experiment: Test B flood test barnyardgrass; format: in vivo, Echinochloa crus-galli
How it was run: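 Plants were grown to the 2-leaf stage before treatment with test chemical, then held in a greenhouse for twelve to sixteen days. Injury was visually rated against untreated controls on a 0–10 scale, where 0 is no effect and 10 is complete control.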

wild oat [2] = experiment: Test B pre/postemergence wild oat; format: in vivo, Avena fatua; conditions: for Wild oats plant response rating (0 to 10 scale): 0 is no effect
How it was run: (§1)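 Test chemicals in a non-phytotoxic solvent mixture with surfactant were sprayed preemergence onto planted seeds and postemergence onto plants 2 to 18 cm tall (1- to 4-leaf stage). After twelve to sixteen days in a greenhouse, injury was visually rated against untreated controls from 0 (no effect) to 10 (complete control).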

blackgrass = experiment: Test E blackgrass; format: in vivo, Alopecurus myosuroides; conditions: Preemergence
wild oat [3] = experiment: Test E wild oat; format: in vivo, Avena fatua; conditions: Preemergence; for Plant response rating, Wild oat: 0 to 100 scale where 0 is no effect and 100 is complete control
winter barley = experiment: Test E winter barley; format: in vivo, Hordeum vulgare; conditions: Preemergence
green foxtail = experiment: Test E green foxtail; format: in vivo, Setaria viridis; conditions: Preemergence
surinam grass = experiment: Test B pre/postemergence surinam grass; format: in vivo, Brachiaria decumbens; conditions: for B. signalgrass plant response rating (0 to 10 scale): 0 is no effect
How it was run: as §1

bedstraw = experiment: Test B pre/postemergence bedstraw; format: in vivo, Galium aparine; conditions: for Bedstraw plant response rating (0 to 10 scale): 0 is no effect
How it was run: as §1

Italian ryegrass = experiment: Test E Italian ryegrass; format: in vivo, Lolium multiflorum; conditions: Preemergence
winter wheat [4] = experiment: Test E winter wheat; format: in vivo, Triticum aestivum; conditions: Postemergence
How it was run: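 For postemergence, application to 1- to 4-leaf plants growing in a 60:40 sandy loam–potting mix substrate. Formulation: non-phytotoxic solvent mixture plus surfactant. Untreated controls served as the reference for the visual rating after ~21–28 days.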

[5] = Rate 1000 g/ha, 0 to 100 scale where 0 is no effect and 100 is complete control
[6] = Postemergence, Rate 62 g/ha, scale 0 to 10, 0 is no effect, 10 is complete control
[7] = Rate 250 g/ha, Postemergence (flood test), scale 0 to 10, 0 is no effect, 10 is complete control
[8] = Postemergence, Rate 125 g/ha, scale of 0 to 10 where 0 is no effect and 10 is complete control
[9] = Preemergence, Rate 62 g/ha, scale 0 to 10 (0 no effect, 10 complete control)
[10] = Preemergence, Rate 125 g/ha, 10 is complete control
[11] = Preemergence, Rate 250 g/ha, scale 0 to 10, 0 is no effect, 10 is complete control
[12] = Preemergence, Rate 500 g/ha, scale 0 to 10 (0 no effect, 10 complete control)
[13] = Rate 62 g/ha, Postemergence, scale of 0 to 10 where 0 is no effect and 10 is complete control
[14] = Rate 250 g/ha, Postemergence, scale 0 to 10, 0 is no effect, 10 is complete control
[15] = Rate 500 g/ha, Postemergence, scale 0 to 10, 0 no effect, 10 complete control
[16] = Rate 1000 g/ha, 0 to 100 scale, 0 is no effect and 100 is complete control
[17] = Rate 500 g/ha, 0 to 100 scale where 0 is no effect and 100 is complete control

For `CC(C)N(C(=O)n1oc(=O)n(-c2cnn(C)c2)c1=O)c1ccccc1` [Compound 123], the “Plant response rating, Wheat (winter)” value (winter wheat [1]; Rate 250 g/ha, 0 to 100 scale) was 10, the “Plant response rating, Wheat (winter)” value (winter wheat [1]; [5]) was 20 and the “Barnyardgrass plant response rating” value (bamyardgrass; Postemergence (flood test species), Rate 125 g/ha, scale of 0 to 10 where 0 is no effect and 10 is complete control) was 0. For the same molecule, the “Barnyardgrass plant response rating” value (bamyardgrass; [6]) was 0, the “Plant response rating, Barnyardgrass” value (bamyardgrass; [7]) was 0 and the “Barnyardgrass plant response rating” value (bamyardgrass; Rate 250 g/ha, headed Pre-emergence (flood test species), scale 0 to 10 (0 no effect, 10 complete control)) was 0. For the same molecule, the “Plant response rating, Barnyardgrass” value (bamyardgrass; Rate 500 g/ha, headed Pre-emergence (flood test species), scale 0 to 10 (0 no effect, 10 complete control)) was 0, the “Barnyardgrass plant response rating” value (bamyardgrass; Rate 500 g/ha, listed under Postemergence (flood test species), scale 0 to 10, 0 no effect, 10 complete control) was 0 and the “Barnyardgrass plant response rating” value (bamyardgrass; Rate 1000 g/ha, Pre-emergence (as headed), scale 0 to 10) was 0. The “Barnyardgrass plant response rating” value (bamyardgrass; Rate 2000 g/ha, Pre-emergence (as headed), scale 0 to 10, 0 no effect, 10 complete control) was 0, the “Wild oats plant response rating” value (wild oat [2]; [8]) was 0 and the “Wild oats plant response rating” value (wild oat [2]; [9]) was 0. For the same molecule, the “Wild oats plant response rating (0 to 10 scale)” value (wild oat [2]; [10]) was 2, the “Wild oats plant response rating” value (wild oat [2]; [11]) was 6 and the “Wild oats plant response rating” value (wild oat [2]; [12]) was 6. For the same molecule, the “Wild oats plant response rating” value (wild oat [2]; [13]) was 0, the “Plant response rating, Wild oats” value (wild oat [2]; [14]) was 0 and the “Wild oats plant response rating” value (wild oat [2]; [15]) was 2. The “Plant response rating, Blackgrass” value (blackgrass; Rate 250 g/ha, 0 to 100 scale) was 30, the “Plant response rating, Blackgrass” value (blackgrass; [5]) was 65 and the “Plant response rating, Wild oat” value (wild oat [3]; Rate 1000 g/ha) was 55. For the same molecule, the “Plant response rating, Barley (winter)” value (winter barley; Rate 250 g/ha, 0 to 100 scale) was 30, the “Plant response rating, Barley (winter)” value (winter barley; [5]) was 50 and the “Plant response rating, Green foxtail” value (green foxtail; Rate 250 g/ha, 0 to 100 scale) was 20. For the same molecule, the “Plant response rating, Green foxtail” value (green foxtail; [5]) was 40, the “B. signalgrass plant response rating” value (surinam grass; [6]) was 0 and the “B. signalgrass plant response rating” value (surinam grass; [8]) was 0. For the same molecule, the “B. signalgrass plant response rating” value (surinam grass; [9]) was 0, the “B. signalgrass plant response rating (0 to 10 scale)” value (surinam grass; [10]) was 0 and the “B. signalgrass plant response rating” value (surinam grass; [11]) was 0. The “B. signalgrass plant response rating” value (surinam grass; [12]) was 2, the “Plant response rating, B. signalgrass” value (surinam grass; [14]) was 3 and the “B. signalgrass plant response rating” value (surinam grass; Rate 500 g/ha, Postemergence, scale of 0 to 10 where 0 is no effect and 10 is complete control) was 5. The “Bedstraw plant response rating” value (bedstraw; [9]) was 0, the “Bedstraw plant response rating (0 to 10 scale)” value (bedstraw; [10]) was 0 and the “Bedstraw plant response rating” value (bedstraw; [11]) was 0. The “Bedstraw plant response rating” value (bedstraw; [12]) was 0, the “Plant response rating, I. Ryegrass” value (Italian ryegrass; Rate 250 g/ha, 0 to 100 scale) was 40 and the “Plant response rating, I. Ryegrass” value (Italian ryegrass; [5]) was 50. The “Plant response rating, Wheat (winter)” value (winter wheat [4]; Rate 250 g/ha, 0 to 100 scale (0 no effect, 100 complete control)) was 55 and the “Plant response rating, Wheat (winter)” value (winter wheat [4]; [16]) was 65.

With `Cc1nsc(C)c1-n1c(=O)on(C(=O)N(c2ccc(F)cc2)C(C)C)c1=O` [Compound 157] the “Wheat (winter) plant response rating (0 to 100 scale)” value (winter wheat [1]; Rate 250 g/ha) was 20, the “Plant response rating, Wheat (winter)” value (winter wheat [1]; [17]) was 30 and the “Plant response rating, Wheat (winter)” value (winter wheat [1]; [5]) was 40. The “Barnyardgrass plant response rating” value (bamyardgrass; Postemergence, Rate 1000 g/ha, scale 0 to 10 (0 no effect, 10 complete control)) was 0, the “Plant response rating, Barnyardgrass” value (bamyardgrass; [7]) was 0 and the “Barnyardgrass plant response rating” value (bamyardgrass; Rate 500 g/ha, listed under Postemergence (flood test species), scale 0 to 10) was 0. The “Barnyardgrass plant response rating” value (bamyardgrass; Rate 2000 g/ha, Postemergence, scale 0 to 10) was 0, the “Wild oats plant response rating” value (wild oat [2]; [9]) was 0 and the “Wild oats plant response rating (0 to 10 scale)” value (wild oat [2]; [10]) was 0. For the same molecule, the “Wild oats plant response rating” value (wild oat [2]; [11]) was 0, the “Wild oats plant response rating” value (wild oat [2]; [12]) was 0 and the “Plant response rating, Wild oats” value (wild oat [2]; [14]) was 0. The “Wild oats plant response rating” value (wild oat [2]; Rate 500 g/ha, Postemergence, scale 0 to 10) was 0, the “Blackgrass plant response rating (0 to 100 scale)” value (blackgrass; Rate 250 g/ha) was 20 and the “Plant response rating, Blackgrass” value (blackgrass; [17]) was 40. For the same molecule, the “Plant response rating, Blackgrass” value (blackgrass; [5]) was 50, the “Wild oat plant response rating (0 to 100 scale)” value (wild oat [3]; Rate 250 g/ha) was 50 and the “Plant response rating, Wild oat” value (wild oat [3]; Rate 500 g/ha) was 30. For the same molecule, the “Plant response rating, Wild oat” value (wild oat [3]; Rate 1000 g/ha) was 50, the “Barley (winter) plant response rating (0 to 100 scale)” value (winter barley; Rate 250 g/ha) was 0 and the “Plant response rating, Barley (winter)” value (winter barley; [17]) was 10. For the same molecule, the “Plant response rating, Barley (winter)” value (winter barley; [5]) was 30, the “Green foxtail plant response rating (0 to 100 scale)” value (green foxtail; Rate 250 g/ha) was 30 and the “Plant response rating, Green foxtail” value (green foxtail; [17]) was 40. The “Plant response rating, Green foxtail” value (green foxtail; [5]) was 50, the “B. signalgrass plant response rating” value (surinam grass; [8]) was 0 and the “B. signalgrass plant response rating” value (surinam grass; [9]) was 0. The “B. signalgrass plant response rating (0 to 10 scale)” value (surinam grass; [10]) was 0, the “B. signalgrass plant response rating” value (surinam grass; [11]) was 0 and the “B. signalgrass plant response rating” value (surinam grass; [12]) was 0. The “B. signalgrass plant response rating” value (surinam grass; [13]) was 0, the “Plant response rating, B. signalgrass” value (surinam grass; [14]) was 0 and the “B. signalgrass plant response rating” value (surinam grass; [15]) was 0. The “Bedstraw plant response rating” value (bedstraw; [8]) was 0, the “Bedstraw plant response rating” value (bedstraw; [9]) was 0 and the “Bedstraw plant response rating (0 to 10 scale)” value (bedstraw; [10]) was 0. The “Bedstraw plant response rating” value (bedstraw; [11]) was 0, the “Bedstraw plant response rating” value (bedstraw; [12]) was 0 and the “Bedstraw plant response rating” value (bedstraw; [13]) was 0. For the same molecule, the “Plant response rating, Bedstraw” value (bedstraw; [14]) was 0, the “I. Ryegrass plant response rating (0 to 100 scale)” value (Italian ryegrass; Rate 250 g/ha) was 20 and the “Plant response rating, I. Ryegrass” value (Italian ryegrass; [17]) was 30. The “Plant response rating, I. Ryegrass” value (Italian ryegrass; [5]) was 50, the “Plant response rating, Wheat (winter)” value (winter wheat [4]; [16]) was 40 and the “Plant response rating, Wheat (winter)” value (winter wheat [4]; Rate 500 g/ha, 0 to 100 scale, 0 no effect, 100 complete control) was 30. The “Wheat (winter) plant response rating” value (winter wheat [4]; Rate 250 g/ha, 0 to 100 scale where 0 is no effect and 100 is complete control) was 20.
